Laboratory results as given in patent publication US9447044B2, “Thioaryl derivatives as GPR120 agonists” (LG LIFE SCIENCES LTD., priority 2012, dated 2016).

Target: T1, hGPR120 (Homo sapiens, UniProt Q5NUL3)
T1 construct: expressed in transfected cells; host or cells: CHO-K1
T1 sequence (Q5NUL3 1-361): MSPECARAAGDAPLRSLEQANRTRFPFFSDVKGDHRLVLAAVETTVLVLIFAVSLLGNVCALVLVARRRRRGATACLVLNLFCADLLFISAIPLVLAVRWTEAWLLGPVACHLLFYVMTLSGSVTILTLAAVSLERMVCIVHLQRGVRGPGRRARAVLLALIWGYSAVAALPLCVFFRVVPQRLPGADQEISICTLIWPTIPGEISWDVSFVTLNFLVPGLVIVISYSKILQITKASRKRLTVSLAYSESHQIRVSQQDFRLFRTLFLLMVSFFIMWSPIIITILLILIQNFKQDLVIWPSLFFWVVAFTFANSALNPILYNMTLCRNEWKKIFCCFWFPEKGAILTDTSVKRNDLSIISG
Experiment: Measurement of activity of GPR120 agonist (cell-based assay), calcium fluorescence
Settings: CHO-K1 cells expressing Ga16 and hGPR120; Calcium 5 dye fluorescence; activity class
Procedure, shortened: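 CHO-K1 cells co-expressing Gα16 and hGPR120, loaded with Calcium 5 dye for 1 h at 37° C, received serially diluted agonists (final 0.5% DMSO). Fluorescence (Ex 485/Em 525 nm) was expressed as relative percent over 0.1% DMSO-only wells; activity binned as A >20 μM, B 20–2 μM, C 2–0.2 μM, D <0.2 μM.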

Row | SMILES | EC50 [nM]
1 | O=C(O)C1CC1c1ccc(OCc2cccc(SC3CCC3)n2)c(Cl)c1 (stereo not drawn) [Example 132, 2-[3-chloro-4-(6-cyclobutylsulfanyl-pyridin-2-ylmethoxy)-phenyl]-cyclopropane carboxylic acid] | < 200
2 | CCCSc1ncccc1COc1c(F)cc(C2CC2C(=O)O)cc1F (stereo not drawn) [Example 139, 2-[3,5-difluoro-4-(2-propylsulfanyl-pyridin-3-ylmethoxy)-phenyl]-cyclopropane carboxylic acid] | < 200
3 | CC(C)Sc1cccc(COc2ccc(CCC(=O)O)cc2Cl)n1 [Example 141, 3-[3-chloro-4-(6-isopropylsulfanyl-pyridin-2-ylmethoxy)-phenyl]-propionic acid] | < 200
4 | O=C(O)CCc1ccc(OCc2cccc(SC3CCCC3)n2)c(Cl)c1 [Example 143, 3-[3-chloro-4-(6-cyclopentylsulfanyl-pyridin-2-ylmethoxy)-phenyl]-propionic acid] | < 200
5 | CCCSc1ncccc1COc1ccc(CCC(=O)O)cc1F [Example 144, 3-[3-fluoro-4-(2-propylsulfanyl-pyridin-3-ylmethoxy)-phenyl]-propionic acid] | < 200
6 | O=C(O)CCc1ccc(OCc2cccnc2SC2CCC2)c(F)c1 [Example 145, 3-[4-(2-cyclobutylsulfanyl-pyridin-3-ylmethoxy)-3-fluoro-phenyl]-propionic acid] | < 200
7 | O=C(O)CCc1ccc(OCc2cccnc2SC2CCCC2)c(F)c1 [Example 146, 3-[4-(2-cyclopentylsulfanyl-pyridin-3-ylmethoxy)-3-fluoro-phenyl]-propionic acid] | < 200
8 | O=C(O)CCc1ccc(OCc2cccc(SC3CCC3)n2)c(F)c1 [Example 148, 3-[4-(6-cyclobutylsulfanyl-pyridin-2-ylmethoxy)-3-fluoro-phenyl]-propionic acid] | < 200
9 | CC(C)Sc1cccc(COc2ccc(CCC(=O)O)cc2F)n1 [Example 149, 3-[3-fluoro-4-(6-isopropylsulfanyl-pyridin-2-ylmethoxy)-phenyl]-propionic acid] | < 200
10 | O=C(O)CCc1ccc(OCc2cccc(SC3CCCC3)n2)c(F)c1 [Example 150, 3-[4-(6-cyclopentylsulfanyl-pyridin-2-ylmethoxy)-3-fluoro-phenyl]-propionic acid] | < 200
11 | O=C(O)CCc1ccc(OCc2cccc(SCC3CC3)n2)c(F)c1 [Example 151, 3-[4-(6-cyclopropylmethylsulfanyl-pyridin-2-ylmethoxy)-3-fluoro-phenyl]-propionic acid] | < 200
12 | CC(C)Sc1cccc(COc2c(F)cc(C3CC3C(=O)O)cc2F)n1 (stereo not drawn) [Example 152, 2-[3,5-difluoro-4-(6-isopropylsulfanyl-pyridin-2-ylmethoxy)-phenyl]-cyclopropane carboxylic acid] | < 200
13 | O=C(O)C1CC1c1cc(F)c(OCc2cccc(SCC3CC3)n2)c(F)c1 (stereo not drawn) [Example 153, 2-[4-(6-cyclopropylmethylsulfanyl-pyridin-2-ylmethoxy)-3,5-difluoro-phenyl]-cyclopropane carboxylic acid] | < 200
14 | O=C(O)C1CC1c1cc(F)c(OCc2cccc(SC3CCC3)n2)c(F)c1 (stereo not drawn) [Example 155, 2-[4-(6-cyclobutylsulfanyl-pyridin-2-ylmethoxy)-3,5-difluoro-phenyl]-cyclopropane carboxylic acid] | < 200
15 | O=C(O)CCc1ccc(OCc2cccnc2SCC2CC2)c(Cl)c1 [Example 157, 3-[3-chloro-4-(2-cyclopropylmethylsulfanyl-pyridin-3-ylmethoxy)-phenyl]-propionic acid] | < 200
16 | O=C(O)CCc1ccc(OCc2cccnc2SC2CCC2)c(Cl)c1 [Example 158, 3-[3-chloro-4-(2-cyclobutylsulfanyl-pyridin-3-ylmethoxy)-phenyl]-propionic acid] | < 200
17 | O=C(O)CCc1ccc(OCc2cccc(SC3CCC3)n2)c(Cl)c1 [Example 159, 3-[3-chloro-4-(6-cyclobutylsulfanyl-pyridin-2-ylmethoxy)-phenyl]-propionic acid] | < 200
18 | Cc1ccc(COc2ccc(CCC(=O)O)cc2Cl)c(SC2CCCC2)n1 [Example 161, 3-[3-chloro-4-(2-cyclopentylsulfanyl-6-methyl-pyridin-3-ylmethoxy)-phenyl]-propionic acid] | 200 to 2000
19 | CC(C)Sc1ncccc1COc1ccc(C2CC2C(=O)O)cc1F (stereo not drawn) [Example 162, 2-[3-fluoro-4-(2-isopropylsulfanyl-pyridin-3-ylmethoxy)-phenyl]-cyclopropane carboxylic acid] | < 200
20 | O=C(O)C1CC1c1ccc(OCc2cccc(SCC3CC3)n2)c(F)c1 (stereo not drawn) [Example 170, 2-[4-(6-cyclopropylmethylsulfanyl-pyridin-2-ylmethoxy)-3-fluoro-phenyl]-cyclopropane carboxylic acid] | < 200
21 | O=C(O)CCc1ccc(NCc2cccnc2SC2CCCC2)cc1 [Example 171, 3-{4-[(2-cyclopentylsulfanyl-pyridin-3-ylmethyl)-amino]-phenyl]-propionic acid] | 200 to 2000
22 | O=C(O)CCc1ccc(NCc2cccc(SC3CCCC3)n2)cc1 [Example 172, 3-{4-[(6-cyclopentylsulfanyl-pyridin-2-ylmethyl)-amino]-phenyl]-propionic acid] | 2000 to 20000

The next lines start with the values.

Row | EC50 [nM] | SMILES
23 | < 200 | O=C(O)CCc1ccc(OCc2cccnc2SC2CCCC2)cc1F [Example 173]
24 | 200 to 2000 | O=C(O)C1CC1c1ccc(OCc2cccnc2SC2CCCC2)cc1F (stereo not drawn) [Example 174]
25 | 200 to 2000 | O=C(O)CCc1ccc(OCc2cccnc2SC2CCC2)cc1F [Example 175]
26 | 200 to 2000 | O=C(O)CCc1ccc(OCc2cccc(SC3CCCC3)n2)cc1F [Example 177]
27 | 200 to 2000 | O=C(O)CCc1ccc(OCc2cccnc2SCC2CC2)cc1F [Example 178]
28 | 200 to 2000 | O=C(O)CCc1ccc(OCc2cccc(SCC3CC3)n2)cc1F [Example 179]
29 | 200 to 2000 | O=C(O)CCc1ccc(OCc2cccnc2SC2CCC2)cc1 [Example 180]
30 | < 200 | O=C(O)CCc1ccc(OCc2cccc(SC3CCC3)n2)cc1 [Example 181]
31 | < 200 | O=C(O)CCc1ccc(OCc2cccnc2SCC2CC2)cc1 [Example 182]
32 | 200 to 2000 | O=C(O)CCc1ccc(OCc2cccc(SCC3CC3)n2)cc1 [Example 183]
33 | 200 to 2000 | Cc1ccc(COc2ccc(CCC(=O)O)cc2)c(SC2CCCC2)n1 [Example 184]

Same assay, conditions: CHO-K1 cells expressing Ga16 and hGPR120; Calcium 5 dye fluorescence; numeric value

Row | SMILES | EC50 [nM]
34 | CC(C)Sc1ncccc1COc1c(F)cc(C2CC2C(=O)O)cc1F (stereo not drawn) [Example 138, 2-[3,5-difluoro-4-(2-isopropylsulfanyl-pyridin-3-ylmethoxy)-phenyl]-cyclopropane carboxylic acid] | 56
35 | O=C(O)CCc1ccc(OCc2cccc(SCC3CC3)n2)c(Cl)c1 [Example 142, 3-[3-chloro-4-(6-cyclopropylmethylsulfanyl-pyridin-2-ylmethoxy)-phenyl]-propionic acid] | 11
36 | O=C(O)CCc1ccc(OCc2cccnc2SCC2CC2)c(F)c1 [Example 147, 3-[4-(2-cyclopropylmethylsulfanyl-pyridin-3-ylmethoxy)-3-fluoro-phenyl]-propionic acid] | 54
37 | Cc1ccc(COc2ccc(CCC(=O)O)cc2Cl)c(SC(C)C)n1 [Example 160, 3-[3-chloro-4-(2-isopropylsulfanyl-6-methyl-pyridin-3-ylmethoxy)-phenyl]-propionic acid] | 202

Continued, values first:

Row | EC50 [nM] | SMILES
38 | 176 | O=C(O)CCc1ccc(OCc2cccc(SC3CCC3)n2)cc1F [Example 176]
39 | 441 | Cc1ccc(COc2ccc(CCC(=O)O)cc2)c(SC(C)C)n1 [Example 185]
